{
  "source": "patent US20240058364A1",
  "about": "“A COMPOSITION FOR USE IN THE TREATMENT OF RECTAL AND/OR INTESTINAL INFLAMMATION” (CANNAMORE BIOTECHS LTD., priority 2020, published 2024)",
  "tested_on": "IL8 secretion from TNFα induced Caco-2 cells",
  "assay": "IL8 secretion from TNFα induced Caco-2 cells (HTRF)",
  "assay_type": "cell-based, Human",
  "conditions": "24 h incubation; combinations: CBD 30 μM with NaB or NaP 20 mM",
  "method": "Cell lines were cultured according to standard mammalian tissue culture protocols and sterile technique. Human colon epithelial cells, Caco-2, were cultured in high glucose Dulbecco's Modified Eagle Medium (DMEM). Human monocytes THP-1 cells line were cultured in RPMI medium 1640. Both media were supplemented with 10% fetal bovine serum (FBS), 2 mM 1-glutamine and 0.1% penicillin-streptomycin solution in a humidified atmosphere (5% CO2, 95% air, 37° C.) in a 75 cm2 cell culture treated flask (Eppendorf). All the media and supplements were obtained from Biological Industries.\nInterleukin 8 (IL 8) detection and quantification was performed with Homogeneous Time-Resolved fluorescence (HTRF).\nCaco-2 cells were seeded in a 96 micro well delta surface plates (Eppendorf) at a starting confluence of 2×10^4 cells/well and were incubated for 21 days. Growth medium was replaced every 2-3 days.\nAfter 22 days, the medium was replaced with medium containing both TNFα (as a damage inducer) and the tested sample (as treatment) using specific media containing 5% FBS. After 24 hours incubation, the supernatant was collected and stored for cytokine analysis. The supernatant was diluted up to 5 times in working media to avoid the hook effect.\nHTRF assays were performed in white 96-well plate (CisBio Bioassays) with a total working volume of 20 μL. All HTRF reagents were purchased from CisBio Bioassays and reconstituted according to the manufacturer protocols. For each assay 16 μL of diluted supernatants samples were incubate with 4 μL mixed solution containing donor and acceptor antibodies.\nAfter 2 h incubation HTRF signals were measured using SPARK multimode microplate reader with an excitation filter at 320 nm and fluorescence wavelength measurement at 620 and 665 nm, an integration delay of 60 μs and an integration time of 400 μs. Results were analyzed with a two-wavelength signal ratio: [intensity (665 nm)/intensity (620 nm)]*104. Calculation and analysis of cytokines release was performed according to the manufacturer protocols and using the 4PL 1/Y2 formula in GraphPad Prism software.",
  "data": [
    {"smiles": "CCC(=O)[O-].[Na+]", "note": "[NaP, sodium propionate]", "values": [
      {"measurement": "IL8 secretion from TNFα induced Caco2 cells (result in words)", "value": "mild reduction of IL8 secretion"}
    ]},
    {"smiles": "CCCC(=O)[O-].[Na+]", "note": "[NaB, sodium butyrate]", "values": [
      {"measurement": "IL8 secretion from TNFα induced Caco2 cells (result in words)", "value": "didn't exhibit any significant effect"}
    ]},
    {"smiles": "C=C(C)[C@@H]1CCC(C)=C[C@H]1c1c(O)cc(CCCCC)cc1O", "note": "[CBD, 2-[(6R)-3-Methyl-6-prop-1-en-2-yl-1cyclohex-2-envyl]-5pentylbenzene-1,3-diol, reference compound]", "values": [
      {"measurement": "IL8 secretion from TNFα induced Caco2 cells (result in words)", "value": "didn't exhibit any significant effect"}
    ]}
  ]
}
